{"source": "paper PMC7591906", "about": "“pHLIP ICG for delineation of tumors and blood flow during fluorescence-guided surgery” (Scientific Reports, 2020)", "key": {"[1]": {"experiment": "Kinetics of insertion into POPC liposomes (stopped-flow tryptophan fluorescence)", "assay_type": "physicochemical", "details": "pH drop from pH 8 to pH 5, Trp fluorescence, bi-exponential fit, about 15% of final adjustment", "experimental": "POPC (1-palmitoyl-2-oleoyl-sn-glycero-3-phosphocholine, Avanti Polar Lipids, Inc.) liposomes were used in biophysical measurements to mimic cell membranes and investigate the pHLIP ICG interactions with lipid bilayers. Large unilamellar vesicles (LUVs) were prepared by extrusion. POPC dissolved in chloroform was desolvated in a rotary evaporator and placed under high vacuum for 2 hours to create a phospholipid film. Lipids were then rehydrated in phosphate buffer (pH8) and repeatedly extruded through membranes with a pore size of 100 nm to make LUVs.\nTo follow pHLIP ICG insertion into the lipid bilayer of POPC liposomes in real-time, kinetics measurements were performed using a SFM-300 mixing system (Bio-Logic Science Instruments) in combination with a MOS-450 spectrometer with its temperature control set to 25.0°C. pHLIP ICG pre-mixed with POPC liposomes in phosphate buffer at pH8 were mixed (5 ms dead time) with acid to drop the pH from pH8 to pH5 and promote pHLIP peptide insertion into the bilayers. The insertion process was monitored by recording changes of the tryptophan fluorescence of pHLIP peptide excited at 295 nm and using a cut off filter at 320 nm."}, "implanted tumors": {"tested_on": "implanted tumors", "experiment": "Fluorescence-guided resection of tumors, dose finding", "assay_type": "in vivo, mice", "details": "tail vein, doses 0.5 to 2.5 mg/kg, resection at 24 and 48 h, Stryker SPY-PHI", "experimental": "(§1) Targeting of murine and human tumors was shown in 8 different tumor models in athymic female nude mice (strain Hsd Athymic Nude-Foxn1nu) ranging in age from 5 to 6 weeks (obtained from Envigo RMS, Inc). The following tumors were established by subcutaneous injection of 1 x 10^6 cells/0.1 ml/flank in flanks of athymic nude mice: HeLa (humans cervical adenocarcinoma), M4A4 (human epithelial carcinoma), 4T1 (murine breast tumor), A549 (human lung carcinoma), LLC (murine Lewis Lung carcinoma), UM-UC3 (human urinary bladder cancer), and 4 x 10^6 cells/0.1 ml/flank of LNCaP tumor (human prostate cancer). Human MDA-MB-231 (breast adenocarcinoma) tumors were established by injections of 1 x 10^6 cells/0.05 ml in the mammary fat pad. […] Finally, surgery was carried out under fluorescence-guidance to remove tumor and to image the tumor bed using the Stryker SPY-PHI handheld clinical imaging system."}, "4T1 tumor": {"tested_on": "4T1 tumor", "experiment": "Biodistribution and kinetics, ex vivo fluorescence imaging of organs", "assay_type": "in vivo, BALB/c mice", "details": "post-administration, decay after 6 h", "experimental": "BALB/cAcNHsd mice ranging in age from 5 to 6 weeks obtained from Envigo RMS, Inc. were used in the study. Mouse mammary 4T1 cancer cells were subcutaneously implanted in the right flank (8 x 10^5 cells/0.1 mL/flank) of adult female or male mice. The triple-negative 4T1 tumor model closely mimics stage IV of human breast cancer. When tumors reached […] in diameter, single tail vein injections of 0.5 mg/kg of pHLIP ICG in sterile PBS, or PBS with 5% DMSO or 5% Ethanol (vol:vol) (volume of the injection was 100 μl) were performed. Animals were euthanized 5 min, 1, 2, 4, 6, 16, 26 and 48 hrs after pHLIP ICG administration. Several animals were used for each time point plus seven control animals (no pHLIP ICG administration). Tumor, muscles, skin, heart, lungs, liver, spleen, kidneys, brain, pancreas, bone, stomach, small and large intestines were collected, and imaged immediately after necropsy. […] The background signal was determined by introducing an intensity threshold. All the pixels with intensity above the set threshold were counted and the average intensity per pixel was calculated. For organs for which the highest illumination light intensity produced a saturated image, the medium illumination light intensity images were analyzed, then converted to a comparison using experimentally established conversion curves."}, "[2]": {"tested_on": "human mammary epithelial cells (HMEpC)", "experiment": "Cytotoxicity, cell viability (CellTiter 96 AQueous One)", "assay_type": "cell-based", "details": "0.125 up to 16 µM, 72 h, absorbance 490 nm, triplicate", "experimental": "Human mammary epithelial cells (HMEpC) acquired from Cell Applications, Inc. were authenticated and stored according to supplier’s instructions. Cells were cultured in mammary epithelial cell growth medium provided by the manufacturer. HMEpC cells were loaded in the wells of 96-well plates (~6,000 cells per well) and incubated overnight. Increasing amounts of pHLIP ICG dissolved in cell growth medium were added to cells to give the following final concentrations of pHLIP ICG with cells: 0.125, 0.25, 0.5, 1, 2, 4, 8 and 16 μM. After 48 and 72 hours of incubation, a colorimetric reagent (CellTiter 96 AQueous One Solution Assay, Promega) was added for 2 hours followed by measuring absorbance at 490 nm to assess cell viability. All samples were prepared in triplicate and each experiment was repeated several times."}, "[3]": {"experiment": "7-day repeat i.v. toxicity in B6D2F1 mice (GLP)", "assay_type": "in vivo", "details": "13.6 mg/kg/day i.v. for 7 days, incidence and severity decreasing over time", "experimental": "The purpose of this GLP study performed at MSK was to assess the acute and delayed toxicity of a repeat administration of pHLIP ICG in mice. The pHLIP ICG was administered for 7 consecutive days.\nThroughout the study, body weights, clinical signs, clinical pathology (hematology and clinical chemistry), and histopathology were collected."}, "[4]": {"experiment": "Imaging of blood vessels in mice", "assay_type": "in vivo, athymic female nude mice", "details": "2.5 nmol single tail vein injection, NIR imaging of leg and ear, five animals", "protocol": "Single tail vein administrations of 2.5 nmol of ICG-Cys or pHLIP ICG in sterile PBS or PBS with 5% DMSO or 5% Ethanol (vol:vol) (volume of the injection was 100 μl) were given to athymic female nude mice (strain Hsd Athymic Nude-Foxn1nu) ranging in age from 5 to 6 weeks (obtained from Envigo RMS Inc). Mice were under gas anesthesia, and imaging of mouse leg and ear was performed immediately and at different time points (from 5 min till 120 min) after administration of ICG-Cys or pHLIP ICG using the Stryker 1558 AIM clinical imaging system with L10 AIM Light Source, 1588 AIM Camera and a 10 mm scope and a Novadaq imaging system. Five animals per construct were used in the study."}, "[5]": {"tested_on": "MDA-MB-231, 4T1, A549, LLC, M4A4, HeLa, UM-UC3 and LNCaP tumors", "experiment": "Tumor targeting, NIR fluorescence imaging in different tumor models", "assay_type": "in vivo, athymic female nude mice", "details": "24 h after single i.v. 0.5 mg/kg, 8 tumor models, Stryker clinical imaging system, skin removed", "experimental": "as §1"}}, "note": "Peptide text beside a SMILES is read from it. * marks the point of attachment. X1 = CC1(C)C(/C=C/C=C/C=C/C=C2/N(CCCCCC(=O)NCCN3C(=O)CC(*)C3=O)c3ccc4ccccc4c3C2(C)C)=[N+](CCCCS(=O)(=O)[O-])c2ccc3ccccc3c21", "data": [{"smiles": "CC(C)C[C@H](NC(=O)[C@H](Cc1ccc(O)cc1)NC(=O)[C@H](C)NC(=O)[C@H](CCCNC(=N)N)NC(=O)[C@H](Cc1c[nH]c2ccccc12)NC(=O)[C@@H]1CCCN1C(=O)[C@H](CC(N)=O)NC(=O)[C@H](CCC(N)=O)NC(=O)[C@H](CC(=O)O)NC(=O)[C@H](CC(=O)O)NC(=O)[C@H](CSC1CC(=O)N(CCNC(=O)CCCCCN2/C(=C/C=C/C=C/C=C/C3=[N+](CCCCS(=O)(=O)[O-])c4ccc5ccccc5c4C3(C)C)C(C)(C)c3c2ccc2ccccc32)C1=O)NC(=O)[C@H](C)N)C(=O)N[C@@H](CC(=O)O)C(=O)N[C@@H](CC(C)C)C(=O)N[C@@H](CC(C)C)C(=O)N[C@@H](Cc1ccccc1)C(=O)N1CCC[C@H]1C(=O)N[C@H](C(=O)N[C@@H](CC(=O)O)C(=O)N[C@H](C(=O)N[C@@H](CC(C)C)C(=O)N[C@@H](CC(C)C)C(=O)N[C@@H](CC(C)C)C(=O)N[C@@H](CC(=O)O)C(=O)N[C@@H](CC(C)C)C(=O)N[C@@H](CC(C)C)C(=O)N[C@@H](Cc1c[nH]c2ccccc12)C(=O)N[C@@H](C)C(=O)O)[C@@H](C)O)[C@@H](C)O", "note": "(stereo partly shown) [pHLIP ICG] (H-AC(X1)DDQNPWRAYLDLLFPTDTLLLDLLWA-OH)", "values": [{"measurement": "Rate of insertion into lipid bilayer, slow component", "setting": "[1]", "result": 0.077, "unit": "s⁻¹"}, {"measurement": "Minimal dose sufficient for successful visualization of tumors", "setting": "implanted tumors", "result": 0.5, "unit": "mg/kg"}, {"measurement": "Time of maximum signal in the liver", "setting": "4T1 tumor", "result": 1, "unit": "h"}, {"measurement": "Cytotoxic effect (cell viability)", "setting": "[2]", "result": "did not show any cytotoxic effect at any tested concentration"}, {"measurement": "Toxicity finding", "setting": "[3]", "result": "may be associated with germ cell degeneration in males"}, {"measurement": "Time for which blood vessels are clearly revealed", "setting": "[4]", "result": "up to 2 h"}, {"measurement": "Tumor targeting", "setting": "[5]", "result": "Excellent tumor targeting"}]}]}
